Results published in patent EP0168515A2, “Process for the preparation of steffimycinones, analogues of steffimycinones so obtained, intermediates useful in the synthesis of those compounds, use of these compounds as antibacterials acid for the synthesis of antitumor products” (LABORATOIRES HOECHST S.A., priority 1984, dated 1986).

Key:
[1] = tested on: Bacillus subtilis (ATCC 6533); experiment: Bactericidal action: growth inhibition test; type: cell-based; conditions: 100 µg/ml in 60% Dimethylsulfoxyd / 40% destilliertem Wasser, after 24 Stunden
Description: (§1) Das Produkt der Formel II wurde an folgenden Mikroorganismen geprüft: • Bacillus pumilus (CNCM 7618) und • Bacillus subtilis (ATCC 6533)
(§2) Es wurde auf eine Konzentration von 100 µg/ml in einem Gemisch aus 60% Dimethylsulfoxyd und 40% destilliertem Wasser solubilisiert.

[2] = tested on: Bacillus pumilus (CNCM 7618); experiment: Bactericidal action: growth inhibition test; type: cell-based; conditions: 100 µg/ml in 60% Dimethylsulfoxyd / 40% destilliertem Wasser, after 24 Stunden
Description: as §1, §2

COc1cc(O)c2c(c1)C(=O)c1cc3c(c(O)c1C2=O)C(O)CC(C)(O)C3=O (single isomer, unassigned; (+)) [Verbindung II, (+)-8-Desmethoxy-steffimycinon]
Wachstum [1]: völlig gehemmt | Wachstum [2]: völlig gehemmt
